pIC50: −log10 of the molar value.
Assay: Inhibition of HSP90

pIC50 | SMILES
3.72 | Oc1ccc2c(-c3cc(Br)c(O)cc3O)noc2c1
4.40 | CCOC(=O)NCc1ccc(-n2cnnc2-c2cc(C(C)C)c(O)cc2O)cc1
4.52 | Cc1nc(N)nc2c1/C(=N/O)C[C@@H](c1ccc(F)cc1-c1cccnc1)C2
4.22 | Cc1ccccc1[C@H]1CCCN1C(=O)c1ccc(O)cc1O
